Tests used:
[1] = system: 4th stage larvae (L4) of Dirofilaria immitis; test: Dirofilaria immitis, L4 Stage (DiL4) In Vitro Assay; type: cell-based; details: Dirofilaria immitis, 72 h, read-out: DiL4 Minimum Effective Dose (MED), approximately 72 hours incubation; L4 larvae assessed for survival or paralysis
[2] = system: microfilariae of Dirofilaria immitis; test: Dirofilaria immitis, Microfilaria (DiMF) In vitro Assay; type: cell-based; details: 72 h, read-out: DiMF Minimum Effective Dose (MED), approximately 72 hours incubation, microfilariae assessed for survival or paralysis

SMILES | minimal effective concentration [1] | minimal effective concentration [2]
CC(C)C[C@H]1C(=O)O[C@H](Cc2ccc(Cn3nc(C(F)F)cc3C3CC3)cc2)C(=O)N(C)[C@@H](CC(C)C)C(=O)O[C@H](C)C(=O)N(C)[C@@H](CC(C)C)C(=O)O[C@H](Cc2ccc(Cn3nc(C#N)cc3C#N)cc2)C(=O)N(C)[C@@H](CC(C)C)C(=O)O[C@H](C)C(=O)N1C [Example 1a-7, 1-(4-(((2R,5S,8R,11 S,14R,17S,20R,23S)-14-(4-((5-cyclopropyl-3-(difluoromethyl)-1H-pyrazol-1-yl)methyl)benzyl)-5,11,17,23-tetraisobutyl-4,8,10,16,20,22-hexamethyl-3,6,9,12,15,18,21,24-octaoxo-1,7,13,19-tetraoxa-4,10,16,22-tetraazacyclotetracosan-2-yl)methyl)benzyl)-1H-pyrazole-3,5-dicarbonitrile] | ≤ 0.0001 µM | 0.001 to 0.01 µM
CC(C)C[C@H]1C(=O)O[C@H](Cc2ccc(Cn3nccc3-c3ccccc3)cc2)C(=O)N(C)[C@@H](CC(C)C)C(=O)O[C@H](C)C(=O)N(C)[C@@H](CC(C)C)C(=O)O[C@H](Cc2ccc(Cn3nccc3-c3ccccc3)cc2)C(=O)N(C)[C@@H](CC(C)C)C(=O)O[C@H](C)C(=O)N1C [Example 1b-128, (3S,6R,9S,12R,15S,18R,21S,24R)-3,9,15,21-tetraisobutyl-4,6,10,16,18,22-hexamethyl-12,24-bis(4-((5-phenyl-1H-pyrazol-1-yl)methyl)benzyl)-1,7,13,19-tetraoxa-4,10,16,22-tetraazacyclotetracosan-2,5,8,11,14,17,20,23-octaone] | 0.001 to 0.01 µM | 0.01 to 0.1 µM
CC(C)C[C@H]1C(=O)O[C@H](Cc2ccc(CN3CCOc4ncccc43)cc2)C(=O)N(C)[C@@H](CC(C)C)C(=O)O[C@H](C)C(=O)N(C)[C@@H](CC(C)C)C(=O)O[C@H](Cc2ccccc2)C(=O)N(C)[C@@H](CC(C)C)C(=O)O[C@H](C)C(=O)N1C [Example 10-38, (3S,6R,9S,12R,15S,18R,21S,24R)-6-benzyl-18-[[4-(2,3-dihydropyrido[2,3-b][1,4]oxazin-1-ylmethyl)phenyl]methyl]-3,9,15,21-tetraisobutyl-4,10,12,16,22,24-hexamethyl-1,7,13,19-tetraoxa-4, 10,16,22-tetrazacyclotetracosane-2,5,8,11,14,17,20,23-octaone] | 0.0001 to 0.001 µM | 0.001 to 0.01 µM
CC(C)C[C@H]1C(=O)O[C@H](Cc2ccc(Cn3cc(C#Cc4ccccc4)cn3)cc2)C(=O)N(C)[C@@H](CC(C)C)C(=O)O[C@H](C)C(=O)N(C)[C@@H](CC(C)C)C(=O)O[C@H](Cc2ccccc2)C(=O)N(C)[C@@H](CC(C)C)C(=O)O[C@H](C)C(=O)N1C [Example 2-64, (3S,6R,9S,12R,15S,18R,21S,24R)-6-benzyl-3,9,15,21-tetraisobutyl-4,10,12,16,22,24-hexamethyl-18-(4-((4-(phenylethynyl)-1H-pyrazol-1-yl)methyl)benzyl)-1,7,13,19-tetraoxa-4,10,16,22-tetraazacyclotetracosan-2,5,8,11,14,17,20,23-octaone] | 0.0001 to 0.001 µM | 0.01 to 0.1 µM
COCc1cnn(Cc2ccc(C[C@H]3OC(=O)[C@H](CC(C)C)N(C)C(=O)[C@@H](C)OC(=O)[C@H](CC(C)C)N(C)C(=O)[C@@H](Cc4ccc(Cn5cc(COC)cn5)cc4)OC(=O)[C@H](CC(C)C)N(C)C(=O)[C@@H](C)OC(=O)[C@H](CC(C)C)N(C)C3=O)cc2)c1 [Example 1b-155, (3S,6R,9S,12R,15S,18R,21S,24R)-3,9,15,21-tetraisobutyl-6,18-bis(4-((4-(methoxymethyl)-1H-pyrazol-1-yl)methyl)benzyl)-4,10,12,16,22,24-hexamethyl-1,7,13,19-tetraoxa-4,10,16,22-tetraazacyclotetracosan-2,5,8,11,14,17,20,23-octaone] | 0.001 to 0.01 µM | 0.001 to 0.01 µM

Source: US11331369B2, “Endoparasitic depsipeptides” (Zoetis Services LLC, priority 2017, dated 2022)
